Measurements published in patent US11691949B2, “Quinoline sulfonamide compounds and their use as antibacterial agents” (OTAGO INNOVATION LIMITED, priority 2017, dated 2023).
In brackets after ≈: the same amount, converted by molar mass. Like-named read-outs stand apart in the source and are kept apart here.

Legend:
Assay type in all cases: cell-based
[1] = system: E. coli ATCC 10596; experiment: MIC by broth microdilution, E. coli; conditions: Escherichia coli, read-out: E. coli ATCC 10536 MIC
Description: (§1) Antibacterial susceptibility testing was performed in triplicate (biological) by measuring minimum inhibitory concentrations (MICs) by broth microdilution in 96-well flat bottom microtiter plates (ThermoFisher Scientific, New Zealand). S. uberis ATCC 19436, S. aureus ATCC 6538, or E. coli ATCC 10596 cells grown overnight were diluted to an OD600 of approximately 0.025, so that the final concentration of cells in the MIC assay was approximately 5×10^5 cfu/mL in media as follows: S. uberis; Todd Hewitt Broth (THB), S. aureus; Tryptic Soy Broth (TSB) and Cation Adjusted Muller Hinton Broth (CAMHB), and E. coli; Lysogeny Borth (LB) and CAMHB, before being dispensed into microtiter wells. As required additional sterile Zinc Sulphate (Heptahydrate) was supplemented into the media, so the final concentration was 50 μM. Test compounds were added to starting wells and two-fold serial dilutions were undertaken to generate a range of inhibitor concentrations at a final volume of 200 μl. Media and test compound-free (untreated) controls were included in each microtiter plate in triplicate. After 24 h incubation at 37° C. and 200 rpm, the OD600 of wells were read using a Varioskan Flash plate reader (ThermoFisher Scientific, New Zealand). The MIC was reported as the lowest concentration of the test compound for which no growth occurred, as determined by OD600 readings. The minimum bactericidal concentration (MBC) was determined using the Miles-Misra drop-plate method to measure the viability of cells in response to test compound challenge.

[2] = system: S. uberis ATCC 19436; experiment: MIC by broth microdilution, S. uberis; conditions: Streptococcus uberis, read-out: S. uberis ATCC 19436 MIC
Description: as §1

[3] = system: S. aureus ATCC 6538; experiment: MIC by broth microdilution, S. aureus; conditions: Staphylococcus aureus, read-out: S. aureus ATCC 6538 MIC
Description: as §1

[4] = ATCC 10536 / ATCC 10596, No Zinc
[5] = ATCC 10536 / ATCC 10596, Zinc (50 μM)

Structure (SMILES) | MIC [1, 4] | MIC [1, 5] | MIC ([2]; ATCC19436, No Zinc) | MIC ([2]; ATCC19436, Zinc (50 μM)) | MIC ([3]; ATCC6538, No Zinc) | MIC ([3]; ATCC6538, Zinc (50 μM))
CCN(CC)Cc1ccc2cccc(NS(=O)(=O)c3ccc(C(F)(F)F)cc3)c2n1 [ZDR028, N-(2-((Diethylamino)methyl)quinolin-8-yl)-4-(trifluoromethyl)-benzenesulfonamide] | > 256 µg/mL | > 256 µg/mL | 128 µg/mL (≈ 293 µM) | 0.125 µg/mL (≈ 0.286 µM) | 256 µg/mL (≈ 585 µM) | > 256 µg/mL
O=S(=O)(Nc1cccc2ccc(CN3CCOCC3)nc12)c1ccc(C(F)(F)F)cc1 [ZDR029, N-(2-((Morpholin-4-yl)methyl)quinolin-8-yl)-4-(trifluoromethyl)-benzenesulfonamide] | > 256 µg/mL | > 256 µg/mL | > 256 µg/mL | 0.25 µg/mL (≈ 0.554 µM) | > 256 µg/mL | > 256 µg/mL
CN(C)CCNCc1ccc2cccc(NS(=O)(=O)c3ccc(C(F)(F)F)cc3)c2n1 [ZDR030, N-(2-(((2-(Dimethylamino)ethyl)amino)methyl)quinolin-8-yl)-4-(trifluoromethyl)benzenesulfonamide] | 128 µg/mL (≈ 283 µM) | ≥ 256 µg/mL | 16 µg/mL (≈ 35.4 µM) | 1 µg/mL (≈ 2.21 µM) | 16 µg/mL (≈ 35.4 µM) | 16 µg/mL (≈ 35.4 µM)
O=S(=O)(Nc1cccc2ccc(CNCCO)nc12)c1ccc(C(F)(F)F)cc1 [ZDR031, N-(2-(((2-Hydroxyethyl)amino)methyl)quinolin-8-yl)-4-(trifluoromethyl)benzenesulfonamide] | ≥ 256 µg/mL | > 256 µg/mL | 16 µg/mL (≈ 37.6 µM) | 0.5 µg/mL (≈ 1.18 µM) | 32 µg/mL (≈ 75.2 µM) | 32 µg/mL (≈ 75.2 µM)
O=S(=O)(Nc1cccc2ccc(CN3CCCCC3)nc12)c1ccc(C(F)(F)F)cc1 [ZDR033, N-(2-((Piperidin-1-yl)methyl)quinolin-8-yl)-4-(trifluoromethyl)-benzenesulfonamide] | > 256 µg/mL | > 256 µg/mL | > 256 µg/mL | 0.125 µg/mL (≈ 0.278 µM) | > 256 µg/mL | > 256 µg/mL
O=S(=O)(Nc1cccc2ccc(CNCc3ccccn3)nc12)c1ccc(C(F)(F)F)cc1 [ZDR035, N-(2-((((Pyridin-2-yl)methyl)amino)methyl)quinolin-8-yl)-4-(trifluoromethyl)benzenesulfonamide] | 32 µg/mL (≈ 67.7 µM) | > 256 µg/mL | 2 µg/mL (≈ 4.23 µM) | 1 µg/mL (≈ 2.12 µM) | 4 µg/mL (≈ 8.47 µM) | 4 µg/mL (≈ 8.47 µM)
CN(CCN(C)Cc1ccc2cccc(NS(=O)(=O)c3ccc(C(F)(F)F)cc3)c2n1)Cc1ccc2cccc(NS(=O)(=O)c3ccc(C(F)(F)F)cc3)c2n1 [ZDR036, N,N′-(((Ethane-1,2-diylbis(methylazanediyl))bis(methylene))-bis(quinoline-2,8-diyl))bis(4-(trifluoromethyl)benzenesulfonamide)] | > 256 µg/mL | > 256 µg/mL | > 256 µg/mL | > 256 µg/mL | > 256 µg/mL | > 256 µg/mL
CN(Cc1ccc2cccc(NS(=O)(=O)c3ccc(C(F)(F)F)cc3)c2n1)Cc1ccc2cccc(NS(=O)(=O)c3ccc(C(F)(F)F)cc3)c2n1 [ZDR037, N,N′-(((Methylazanediyl)bis(methylene))bis(quinoline-2,8-diyl))bis(4-(trifluoromethyl)benzenesulfonamide)] | > 256 µg/mL | > 256 µg/mL | > 256 µg/mL | 2 µg/mL (≈ 2.63 µM) | > 256 µg/mL | > 256 µg/mL
CC(C)(C)OC(=O)CNCc1ccc2cccc(NS(=O)(=O)c3ccc(C(F)(F)F)cc3)c2n1 [ZDR041, N-(2-(((tert-Butoxycarbonylmethyl)amino)methyl)quinolin-8-yl)-4-(trifluoromethyl)benzenesulfonamide] | > 256 µg/mL | > 256 µg/mL | > 256 µg/mL | 0.5 µg/mL (≈ 1.01 µM) | 64 µg/mL (≈ 129 µM) | > 256 µg/mL
